Experimental data from ChEMBL document CHEMBL3885881, “DrugMatrix”.

Organism: Rattus norvegicus
Experiment: DrugMatrix - Regimen: Daily Repeat
Format: toxicity, organism-based, Sprague-Dawley
Set-up: regimen Daily Repeat, gender Male, age 6-8 weeks
Details: in vivo, po, route oral GAVAGE, vehicle .5 % CMC; for ABSOLUTE BASOPHIL / ABSOLUTE EOSINOPHIL / ABSOLUTE LYMPHOCYTE / ABSOLUTE MONOCYTE / ABSOLUTE SEGMENTED NEUTROPHIL / BASOPHIL / EOSINOPHIL / ERYTHROCYTE COUNT / HEMATOCRIT / HEMOGLOBIN / LEUKOCYTE COUNT / LYMPHOCYTE / MEAN CORPUSCULAR HEMOGLOBIN / MEAN CORPUSCULAR HEMOGLOBIN CONCENTRATION / MEAN CORPUSCULAR VOLUME / MONOCYTE / NEUTROPHIL / NUCLEATED RED BLOOD CELLS / PLATELET COUNT: tissue Blood; for ALANINE AMINOTRANSFERASE / ALBUMIN / ALKALINE PHOSPHATASE / ASPARTATE AMINOTRANSFERASE / BLOOD UREA NITROGEN / CARBON DIOXIDE / CHLORIDE / CHOLESTEROL / CREATINE PHOSPHOKINASE / CREATININE / GLUCOSE / LACTATE DEHYDROGENASE / LIPASE / PHOSPHORUS / POTASSIUM / SODIUM / TOTAL BILIRUBIN / TOTAL PROTEIN / URIC ACID: tissue Plasma
[1] = 0 mg/kg, 72 h, dose level Control, time 3 day
[2] = 0 mg/kg, 120 h, dose level Control, time 5 day
[3] = 19 mg/kg, 72 h, dose level High, time 3 day

**Q.** What does the source list for `NCC(CC(=O)O)c1ccc(Cl)cc1` (centres undefined) [BACLOFEN]?
**A.** ABSOLUTE BASOPHIL [1]: 0 CELLS/uL; ABSOLUTE EOSINOPHIL [1]: 171.33 CELLS/uL; ABSOLUTE LYMPHOCYTE [1]: 13776.5 CELLS/uL; ABSOLUTE MONOCYTE [1]: 180.83 CELLS/uL; ABSOLUTE SEGMENTED NEUTROPHIL [1]: 1121.33 CELLS/uL; BASOPHIL [1]: 0%; EOSINOPHIL [1]: 1%; ERYTHROCYTE COUNT [1]: 5.56 x10E6/uL; HEMATOCRIT [1]: 34.75%; HEMOGLOBIN [1]: 13.68 G/DL; LEUKOCYTE COUNT [1]: 15.25 x10E3/uL; LYMPHOCYTE [1]: 90.17%; MEAN CORPUSCULAR HEMOGLOBIN [1]: 24.6 pg; MEAN CORPUSCULAR HEMOGLOBIN CONCENTRATION [1]: 39.4 G/DL; MEAN CORPUSCULAR VOLUME [1]: 62.48 fL; MONOCYTE [1]: 1.17%; NEUTROPHIL [1]: 7.67%; NUCLEATED RED BLOOD CELLS [1]: 0 /100WBC; PLATELET COUNT [1]: 1342 x10E3/uL; ALANINE AMINOTRANSFERASE [1]: 49.67 u/L; ALBUMIN [1]: 4.15 G/DL; ALKALINE PHOSPHATASE [1]: 346.83 u/L; ASPARTATE AMINOTRANSFERASE [1]: 108.17 u/L; BLOOD UREA NITROGEN [1]: 17.33 mg/dL; CARBON DIOXIDE [1]: 25 mmol/L; CHLORIDE [1]: 100.83 MEQ/L; CHOLESTEROL [1]: 66.83 mg/dL; CREATINE PHOSPHOKINASE [1]: 788 u/L; CREATININE [1]: 0.18 mg/dL; GLUCOSE [1]: 151.67 mg/dL; LACTATE DEHYDROGENASE [1]: 982.5 u/L; LIPASE [1]: 10.33 u/L; PHOSPHORUS [1]: 11.23 mg/dL; POTASSIUM [1]: 6.37 MEQ/L; SODIUM [1]: 141.02 MEQ/L; TOTAL BILIRUBIN [1]: 0.18 mg/dL; TOTAL PROTEIN [1]: 5.9 G/DL; URIC ACID [1]: 1.8 mg/dL; ABSOLUTE BASOPHIL [2]: 0 CELLS/uL; ABSOLUTE EOSINOPHIL [2]: 69 CELLS/uL; ABSOLUTE LYMPHOCYTE [2]: 13632.83 CELLS/uL; ABSOLUTE MONOCYTE [2]: 139.83 CELLS/uL; ABSOLUTE SEGMENTED NEUTROPHIL [2]: 1225 CELLS/uL; BASOPHIL [2]: 0%; EOSINOPHIL [2]: 0.33%; ERYTHROCYTE COUNT [2]: 5.52 x10E6/uL; HEMATOCRIT [2]: 33.98%; HEMOGLOBIN [2]: 13.22 G/DL; LEUKOCYTE COUNT [2]: 15.07 x10E3/uL; LYMPHOCYTE [2]: 90.83%; MEAN CORPUSCULAR HEMOGLOBIN [2]: 23.95 pg; MEAN CORPUSCULAR HEMOGLOBIN CONCENTRATION [2]: 38.9 G/DL; MEAN CORPUSCULAR VOLUME [2]: 61.53 fL; MONOCYTE [2]: 0.83%; NEUTROPHIL [2]: 8%; NUCLEATED RED BLOOD CELLS [2]: 0 /100WBC; PLATELET COUNT [2]: 1196 x10E3/uL; ALANINE AMINOTRANSFERASE [2]: 49.17 u/L; ALBUMIN [2]: 4.2 G/DL; ALKALINE PHOSPHATASE [2]: 352.33 u/L; ASPARTATE AMINOTRANSFERASE [2]: 89.67 u/L; BLOOD UREA NITROGEN [2]: 18 mg/dL; CARBON DIOXIDE [2]: 27.67 mmol/L; CHLORIDE [2]: 101 MEQ/L; CHOLESTEROL [2]: 72.83 mg/dL; CREATINE PHOSPHOKINASE [2]: 417.5 u/L; CREATININE [2]: 0.18 mg/dL; GLUCOSE [2]: 150.5 mg/dL; LACTATE DEHYDROGENASE [2]: 517.33 u/L; LIPASE [2]: 9 u/L; PHOSPHORUS [2]: 11.87 mg/dL; POTASSIUM [2]: 6.57 MEQ/L; SODIUM [2]: 143.62 MEQ/L; TOTAL BILIRUBIN [2]: 0.2 mg/dL; TOTAL PROTEIN [2]: 6.08 G/DL; URIC ACID [2]: 1.45 mg/dL; ABSOLUTE BASOPHIL [3]: 0 CELLS/uL; ABSOLUTE EOSINOPHIL [3]: 0 CELLS/uL; ABSOLUTE LYMPHOCYTE [3]: 12161.33 CELLS/uL; ABSOLUTE MONOCYTE [3]: 182.33 CELLS/uL; ABSOLUTE SEGMENTED NEUTROPHIL [3]: 1123 CELLS/uL; BASOPHIL [3]: 0%; EOSINOPHIL [3]: 0%; ERYTHROCYTE COUNT [3]: 5.27 x10E6/uL; HEMATOCRIT [3]: 34.17%; HEMOGLOBIN [3]: 13.33 G/DL; LEUKOCYTE COUNT [3]: 13.47 x10E3/uL; LYMPHOCYTE [3]: 90.33%; MEAN CORPUSCULAR HEMOGLOBIN [3]: 25.37 pg; MEAN CORPUSCULAR HEMOGLOBIN CONCENTRATION [3]: 39.03 G/DL; MEAN CORPUSCULAR VOLUME [3]: 64.97 fL; MONOCYTE [3]: 1.33%; NEUTROPHIL [3]: 8.33%; NUCLEATED RED BLOOD CELLS [3]: 0 /100WBC; PLATELET COUNT [3]: 1177 x10E3/uL; ALANINE AMINOTRANSFERASE [3]: 54.33 u/L; ALBUMIN [3]: 4.03 G/DL; ALKALINE PHOSPHATASE [3]: 373.67 u/L; ASPARTATE AMINOTRANSFERASE [3]: 85.33 u/L; BLOOD UREA NITROGEN [3]: 15.33 mg/dL; CARBON DIOXIDE [3]: 26.33 mmol/L; CHLORIDE [3]: 101.67 MEQ/L; CHOLESTEROL [3]: 64 mg/dL; CREATINE PHOSPHOKINASE [3]: 394.67 u/L; CREATININE [3]: 0.16 mg/dL; GLUCOSE [3]: 125 mg/dL; LACTATE DEHYDROGENASE [3]: 438.33 u/L; LIPASE [3]: 10 u/L; PHOSPHORUS [3]: 11.93 mg/dL; POTASSIUM [3]: 7.01 MEQ/L; SODIUM [3]: 142.53 MEQ/L; TOTAL BILIRUBIN [3]: 0.2 mg/dL; TOTAL PROTEIN [3]: 5.53 G/DL; URIC ACID [3]: 1.57 mg/dL
